# Counter-ions that a name gives are not always drawn.
# Tested on: SNU-1 cells
# Experiment: Annexin V-PE/7-AAD apoptosis assay (flow cytometry), SNU-1
# Type: cell-based, human
# Settings: 24 h
# Protocol: Apoptosis was measured by staining with phycoerythrin (PE)-annexin V and 7-amino-actinomycin (7-AAD) (BD Biosciences, Erembodegem, Belgium) for 15 min at room temperature in the dark, followed by flow cytometry (BD Biosciences) within 1 h. Apoptosis was analyzed with FlowJo 7.6 software (FlowJo, LLC, Ashland, Oregon).
# Cells were treated with gimatecan (0–1 µM) and irinotecan (0–1 µM) for 24 h and stained with Annexin V-PE/7-AAD. Sums of percentages of early apoptosis (Q3) and late apoptosis (Q2) were calculated as the total apoptosis ratios. c, d Pro- and anti-apoptotic proteins including Bcl-2, Bak, PARP and cleaved PARP were assessed by western-blotting in SNU-1 and NCI-N87 cells. Western-blotting bands were quantified and normalized by ImageJ. […] They are left out because no substance is present, and they are also barely readable.
Compound,"apoptosis induced compared with controls (0–1 µM, stated generally for the GC cell lines tested)","proportion of apoptotic cells (SNU-1, 1000 nM) [%]"
"CCc1c2c(nc3ccc(OC(=O)N4CCC(N5CCCCC5)CC4)cc13)-c1cc3c(c(=O)n1C2)COC(=O)[C@]3(O)CC [Irinotecan, irinotecan hydrochloride]",not obvious,–
"CC[C@@]1(O)C(=O)OCc2c1cc1n(c2=O)Cc2c-1nc1ccccc1c2/C=N/OC(C)(C)C [Gimatecan, 7-t-butoxyiminomethylcamptothecin]",–,14.38 ± 2.11

# Reference: paper PMC5729429, “Gimatecan exerts potent antitumor activity against gastric cancer in vitro and in vivo via AKT and MAPK signaling pathways” (Journal of Translational Medicine, 2017)
